Experimental data published in PMC2244712, “One-Pot, Mix-and-Read Peptide-MHC Tetramers” (PLoS ONE, 2008).
Residues, ends and D or L forms follow the SMILES beside them.

Key:
[1] = target: T1, HLA-A*0201 (Homo sapiens, UniProt P04439, D140Y/D185E/D98H/E176V/E277Q/G131W/G231S/I119V/I121R/I166T/I218V/L300P/L318F/N151K/N90K/P208A/P217A/Q86G/Q94H/R138H/R169H/T345S); assay: biochemical; type: binding
T1 construct: generated from synthetic codon optimized and truncated genes without the transmembrane region; BSP (BirA biotinylation substrate peptide, biotinylated in vivo or not) (C); made in house; host or cells: E. coli BL21 (DE3), pET28a+, co-transformed with a BirA vector

[2] = target: in vivo biotinylated HLA-B*0702-BSPHAT heavy chain folded with ß2m (human); assay: ELISA
[3] = target: in vivo biotinylated HLA-A*0201-HAT-BSP heavy chain folded with ß2m (human); assay: ELISA
[4] = target: in vivo biotinylated HLA-B*4402-HATBSP heavy chain folded with ß2m (human); assay: ELISA

Sequence of EBV EBNA3b 657-666 peptide (P03203 whole entry, looked up): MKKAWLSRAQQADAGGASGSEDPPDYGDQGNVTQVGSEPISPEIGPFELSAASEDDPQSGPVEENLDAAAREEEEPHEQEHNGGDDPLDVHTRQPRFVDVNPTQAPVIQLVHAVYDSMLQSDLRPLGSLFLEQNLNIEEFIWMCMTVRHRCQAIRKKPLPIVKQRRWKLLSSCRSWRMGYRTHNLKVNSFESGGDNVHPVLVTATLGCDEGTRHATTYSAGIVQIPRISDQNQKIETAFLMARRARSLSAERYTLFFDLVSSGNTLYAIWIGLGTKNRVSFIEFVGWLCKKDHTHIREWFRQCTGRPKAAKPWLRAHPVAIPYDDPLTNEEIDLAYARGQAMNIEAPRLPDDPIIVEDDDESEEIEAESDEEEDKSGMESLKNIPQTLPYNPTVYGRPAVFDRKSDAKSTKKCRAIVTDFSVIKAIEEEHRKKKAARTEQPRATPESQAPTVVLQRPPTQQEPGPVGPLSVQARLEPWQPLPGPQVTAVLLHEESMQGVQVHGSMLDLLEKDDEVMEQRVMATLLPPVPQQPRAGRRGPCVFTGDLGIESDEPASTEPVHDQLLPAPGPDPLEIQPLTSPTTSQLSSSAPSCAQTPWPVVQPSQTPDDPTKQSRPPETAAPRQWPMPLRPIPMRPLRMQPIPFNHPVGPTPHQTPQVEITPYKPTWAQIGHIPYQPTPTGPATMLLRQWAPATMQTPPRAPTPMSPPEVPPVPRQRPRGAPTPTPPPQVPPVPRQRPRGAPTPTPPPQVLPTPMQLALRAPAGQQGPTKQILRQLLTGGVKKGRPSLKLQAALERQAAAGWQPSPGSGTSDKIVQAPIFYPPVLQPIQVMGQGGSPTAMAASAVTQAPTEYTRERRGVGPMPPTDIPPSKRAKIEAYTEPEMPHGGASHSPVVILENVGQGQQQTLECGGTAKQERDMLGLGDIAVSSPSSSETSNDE
Sequence of CMV pp65 495-503 peptide (P06725 whole entry, looked up): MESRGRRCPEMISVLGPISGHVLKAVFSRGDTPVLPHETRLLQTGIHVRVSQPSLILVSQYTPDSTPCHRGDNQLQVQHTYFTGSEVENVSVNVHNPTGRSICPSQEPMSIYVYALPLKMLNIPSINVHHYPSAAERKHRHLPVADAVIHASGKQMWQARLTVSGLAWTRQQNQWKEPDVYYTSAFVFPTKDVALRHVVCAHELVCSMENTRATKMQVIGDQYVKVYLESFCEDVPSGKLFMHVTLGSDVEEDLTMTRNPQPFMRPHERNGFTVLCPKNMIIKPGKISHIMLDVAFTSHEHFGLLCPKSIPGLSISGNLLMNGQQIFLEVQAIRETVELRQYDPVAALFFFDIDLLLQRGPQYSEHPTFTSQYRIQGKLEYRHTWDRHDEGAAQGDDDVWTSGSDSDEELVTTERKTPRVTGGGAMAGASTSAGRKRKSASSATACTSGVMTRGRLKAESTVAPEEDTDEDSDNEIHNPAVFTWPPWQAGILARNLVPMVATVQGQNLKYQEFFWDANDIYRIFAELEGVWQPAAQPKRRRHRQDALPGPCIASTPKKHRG
Sequence of CMV pp65 417-426 peptide (P06725 whole entry, looked up): as above

For `CC[C@H](C)[C@H](NC(=O)[C@H](CCCCN)NC(=O)[C@H](CCCCN)NC(=O)[C@H](CS)NC(=O)[C@H](C)NC(=O)[C@H](CC(=O)O)NC(=O)[C@H](CO)NC(=O)[C@H](CC(C)C)NC(=O)[C@H](C)N)C(=O)O` (H-ALSDACKKI-OH), the Kd [1] was > 1000 nM.

For `CC(C)C[C@H](NC(=O)[C@@H](N)Cc1ccccc1)C(=O)N[C@@H](CCC(=O)O)C(=O)N[C@H](C(=O)N[C@@H](CC(=O)O)C(=O)N[C@@H](C)C(=O)NCC(=O)N[C@@H](CCCNC(=N)N)C(=O)N[C@H](C(=O)O)C(C)C)[C@@H](C)O` (H-FLETDAGRV-OH), the Kd [1] was 10 to 100 nM.

With `CC[C@H](C)[C@H](NC(=O)[C@@H](NC(=O)[C@H](CC(=O)O)NC(=O)[C@H](Cc1ccc(O)cc1)NC(=O)[C@H](CC(=O)O)NC(=O)[C@H](CC(C)C)NC(=O)[C@@H](N)Cc1ccc(O)cc1)[C@@H](C)O)C(=O)N[C@@H](Cc1ccc(O)cc1)C(=O)N[C@H](C(=O)O)C(C)C` (H-YLDYDTIYV-OH) the Kd [1] was < 10 nM.

With `CC[C@H](C)[C@H](NC(=O)[C@H](CC(N)=O)NC(=O)[C@@H](NC(=O)[C@H](C)NC(=O)[C@H](CO)NC(=O)[C@H](CC(=O)O)NC(=O)[C@H](CO)NC(=O)[C@H](CC(C)C)NC(=O)[C@@H](N)Cc1ccc(O)cc1)[C@@H](C)CC)C(=O)O` (H-YLSDSAINI-OH) the Kd [1] was < 10 nM.

`CC(C)C[C@H](NC(=O)[C@@H](N)Cc1ccc(O)cc1)C(=O)N[C@@H](CO)C(=O)N[C@H](C(=O)N[C@@H](CCC(=O)O)C(=O)N[C@@H](CCCNC(=N)N)C(=O)N[C@@H](CC(=O)O)C(=O)N[C@@H](Cc1c[nH]cn1)C(=O)N[C@H](C(=O)O)C(C)C)[C@@H](C)O` (H-YLSTERDHV-OH) gave a Kd [1] of 10 to 100 nM.

“CMV pp65 417-426 peptide (from UniProt P06725 417-426)” was tested, and the % folding [2] was 100%.

“CMV pp65 495-503 peptide (from UniProt P06725 495-503)” gave a % folding [3] of 95%.

“EBV EBNA3b 657-666 peptide (from UniProt P03203 657-666)” showed a % folding [4] of 100%.
